Converted amounts (≈) assume the structure as drawn.
How the values were obtained:
[1] = system: L5178Y; experiment: Induction of apoptosis in human MDR1 gene transfected mouse L5178 Y cells assessed as early apoptosis at 5 ug/mL after 40 mins; format: functional
[2] = system: L5178Y; experiment: Induction of apoptosis in human MDR1 gene transfected mouse L5178 Y cells assessed as necrosis at 5 ug/mL after 40 mins; format: functional
[3] = system: L5178Y; experiment: Induction of apoptosis in human MDR1 gene transfected mouse L5178 Y cells assessed as total apoptosis at 50 ug/mL after 40 mins; format: functional
[4] = system: L5178Y; experiment: Induction of apoptosis in human MDR1 gene transfected mouse L5178 Y cells assessed as necrosis at 50 ug/mL after 40 mins; format: functional
[5] = system: L5178Y; experiment: Induction of apoptosis in human MDR1 gene transfected mouse L5178 Y cells assessed as total apoptosis at 5 ug/mL after 40 mins; format: functional
[6] = system: L5178Y; experiment: Induction of apoptosis in human MDR1 gene transfected mouse L5178 Y cells assessed as early apoptosis at 50 ug/mL after 40 mins; format: functional
[7] = Antiproliferative activity against human MDR1 gene transfected mouse L5178 Y cells after 72 hrs; format: functional; settings: L5178Y, read-out: ID50 (the source's name)
[8] = system: L5178Y; experiment: Induction of apoptosis in human MDR1 gene transfected mouse L5178 Y cells assessed as necrosis at 75 ug/mL after 40 mins; format: functional
[9] = system: L5178Y; experiment: Induction of apoptosis in human MDR1 gene transfected mouse L5178 Y cells assessed as early apoptosis at 7 ug/mL after 40 mins; format: functional
[10] = system: L5178Y; experiment: Induction of apoptosis in human MDR1 gene transfected mouse L5178 Y cells assessed as total apoptosis at 7 ug/mL after 40 mins; format: functional
[11] = system: L5178Y; experiment: Induction of apoptosis in human MDR1 gene transfected mouse L5178 Y cells assessed as necrosis at 7 ug/mL after 40 mins; format: functional
[12] = target: T1, ATP-dependent translocase ABCB1 (Homo sapiens, UniProt P08183); experiment: Inhibition of P-gp mediated efflux-pump activity in human MDR1 gene transfected mouse L5178 Y cells at 40 ug/mL by rhodamine 123 accumulation test; format: cell-based
[13] = target: T1, ATP-dependent translocase ABCB1; experiment: Inhibition of P-gp mediated efflux-pump activity in human MDR1 gene transfected mouse L5178 Y cells at 4 ug/mL by rhodamine 123 accumulation test; format: cell-based
[14] = system: L5178Y; experiment: Induction of apoptosis in human MDR1 gene transfected mouse L5178 Y cells assessed as early apoptosis at 75 ug/mL after 40 mins; format: functional
[15] = system: L5178Y; experiment: Induction of apoptosis in human MDR1 gene transfected mouse L5178 Y cells assessed as total apoptosis at 75 ug/mL after 40 mins; format: functional

T1 sequence (P08183 whole entry): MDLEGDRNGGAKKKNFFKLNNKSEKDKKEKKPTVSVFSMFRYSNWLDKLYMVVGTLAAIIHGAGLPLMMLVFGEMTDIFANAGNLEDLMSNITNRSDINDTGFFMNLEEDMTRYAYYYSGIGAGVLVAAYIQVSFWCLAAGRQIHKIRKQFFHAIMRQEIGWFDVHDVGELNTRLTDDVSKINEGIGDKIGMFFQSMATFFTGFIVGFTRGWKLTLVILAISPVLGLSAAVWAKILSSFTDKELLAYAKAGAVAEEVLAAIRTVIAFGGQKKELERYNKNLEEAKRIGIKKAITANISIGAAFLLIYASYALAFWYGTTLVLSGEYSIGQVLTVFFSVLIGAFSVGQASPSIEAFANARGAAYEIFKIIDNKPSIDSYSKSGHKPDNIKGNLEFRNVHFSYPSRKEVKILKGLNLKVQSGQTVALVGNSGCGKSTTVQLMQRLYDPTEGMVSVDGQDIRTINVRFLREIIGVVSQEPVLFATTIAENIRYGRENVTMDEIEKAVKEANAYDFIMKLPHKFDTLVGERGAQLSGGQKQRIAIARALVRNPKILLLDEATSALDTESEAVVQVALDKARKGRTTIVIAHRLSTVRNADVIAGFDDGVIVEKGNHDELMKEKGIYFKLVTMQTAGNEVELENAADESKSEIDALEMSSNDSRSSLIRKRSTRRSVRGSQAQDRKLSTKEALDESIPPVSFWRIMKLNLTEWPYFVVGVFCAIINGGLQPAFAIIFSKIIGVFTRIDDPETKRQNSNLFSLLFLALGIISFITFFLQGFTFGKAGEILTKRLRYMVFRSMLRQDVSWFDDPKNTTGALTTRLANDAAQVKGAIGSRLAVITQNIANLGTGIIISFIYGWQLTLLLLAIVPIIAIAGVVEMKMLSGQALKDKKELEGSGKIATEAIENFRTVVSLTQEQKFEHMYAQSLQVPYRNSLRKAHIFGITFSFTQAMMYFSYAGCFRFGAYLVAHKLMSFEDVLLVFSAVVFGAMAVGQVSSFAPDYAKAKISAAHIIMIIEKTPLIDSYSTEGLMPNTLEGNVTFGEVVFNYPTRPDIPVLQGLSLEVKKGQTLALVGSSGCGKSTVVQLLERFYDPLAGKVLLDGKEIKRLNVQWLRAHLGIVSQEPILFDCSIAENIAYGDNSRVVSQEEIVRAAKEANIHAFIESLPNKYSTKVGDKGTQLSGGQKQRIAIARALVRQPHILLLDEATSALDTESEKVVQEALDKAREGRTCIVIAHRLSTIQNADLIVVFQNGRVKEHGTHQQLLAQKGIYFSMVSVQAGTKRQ

Fluorescence intensity [12] | Fluorescence intensity [13] | Compound | Activity [8] [%] | Activity [9] [%] | Activity [10] [%] | Activity [11] [%] | Activity [14] [%] | Activity [15] [%] | further results
– | – | c1ccc2c(c1)Nc1c(ccc3ccccc13)S2 | – | – | – | – | – | – | Activity [1]: 1.72%; Activity [2]: 16.3%; Activity [3]: 98%; Activity [4]: 1.81%; Activity [5]: 65.01%; Activity [6]: 0.02%
– | – | COc1cccc2c1C(=O)c1c(O)c3c(c(O)c1C2=O)C[C@@](O)(C(=O)CO)C[C@@H]3O[C@H]1C[C@H](N)[C@H](O)[C@H](C)O1 [DOXORUBICIN] | – | – | – | – | – | – | IC50 [7]: 0.35 µg/mL (≈ 0.644 µM)
– | – | CC(=O)OC[C@H]1C[C@H](OC(=O)/C=C/c2ccccc2)C(=O)/C(C)=C/[C@@H]2[C@H](CC[C@@]3(C)O[C@@H]3C[C@H]1O)C2(C)C [LATILAGASCENES A] | 2.16 | 7.79 | 22.7 | 0.85 | 33.88 | 55.24 | –
– | – | C/C1=C\[C@@H]2[C@H](CC[C@@]3(C)O[C@@H]3C[C@@H](O)[C@@H](CO)C[C@H](OC(=O)/C=C/c3ccccc3)C1=O)C2(C)C [LATILAGASCENES B] | 1.82 | 5.87 | 18.96 | 0.79 | 1.38 | 96.31 | IC50 [7]: 4.58 µg/mL (≈ 9.49 µM)
– | – | CC(=O)OC[C@H]1C[C@H](OC(=O)/C=C/c2ccccc2)C(=O)/C(C)=C/[C@@H]2[C@H](CC[C@@]3(C)O[C@@H]3C[C@H]1OC(C)=O)C2(C)C [LATILAGASCENES C] | 3.93 | 7.8 | 21.9 | 0.69 | 1.04 | 41.31 | –
714 | 685.9 | C/C1=C\[C@@H]2[C@H](CC[C@@]3(C)O[C@@H]3C[C@@H](O)[C@@H](COC(=O)c3ccccc3)C[C@H](OC(=O)/C=C/c3ccccc3)C1=O)C2(C)C [LATILAGASCENES D] | 6.83 | 12.7 | 34.7 | 1.54 | 2.96 | 67.97 | –
810.8 | 882.2 | CC1(C)[C@@H]2/C=C(\CO)C(=O)[C@@H](OC(=O)/C=C/c3ccccc3)C[C@H](COC(=O)c3ccccc3)[C@H](O)C[C@H]3O[C@]3(C)CC[C@@H]21 [LATILAGASCENES E] | – | – | – | – | – | – | –
1029.4 | 212.6 | C/C1=C\[C@@H]2[C@H](CC[C@@]3(C)O[C@@H]3C[C@@H](O)[C@@H](C)CC(OC(=O)c3ccccc3)C1=O)C2(C)C (stereo partly specified) [LATILAGASCENES F] | – | – | – | – | – | – | –

Compound | Fluorescence intensity [12] | Fluorescence intensity [13] | Activity [8] [%] | Activity [9] [%] | Activity [10] [%] | Activity [11] [%] | Activity [14] [%] | Activity [15] [%] | further results
C/C1=C\[C@@H]2[C@H](CC[C@@]3(C)O[C@@H]3[C@H]3[C@@H](O)[C@@H](C)C[C@]3(OC(=O)/C=C/c3ccccc3)C1=O)C2(C)C [JOLKINOL B] | 649.3 | 449.2 | 0.41 | 6.91 | 27 | 1.16 | 4.06 | 38.83 | –

— ChEMBL document CHEMBL1144490, “Apoptosis induction and modulation of P-glycoprotein mediated multidrug resistance by new macrocyclic lathyrane-type diterpenoids” (Bioorg Med Chem, 2007)
